# Values quoted from earlier work in patent US8846744B2, “Pharmaceutical compositions of co-crystals of tramadol and coxibs” (Laboratorios del Dr. Esteve, S.A., priority 2010, dated 2014).
smiles,measurement,value
"Cc1ccc(-c2cc(C(F)(F)F)nn2-c2ccc(S(N)(=O)=O)cc2)cc1 [Celecoxib, 4-[5-(4-methylphenyl)-3-(trifluoromethyl)pyrazol-1-yl]benzenesulfonamide]",solubility in water,practically insoluble
